The numbers were not newly measured in patent US20120183587A1, “FLAVONOL COMPOSITIONS” (priority 2011, published 2012), which cites them from elsewhere.

For this data set the following is noted: Guglen et al., Eur. J. Clin. Pharmacol. 1975.

For `O=c1c(O)c(-c2ccc(O)c(O)c2)oc2cc(O)cc(O)c12` [quercetin, 3,3′,4′,5,7-pentahydroxy-2-phenylchromen-4-one], the “extent of absorption from an oral dose” value is on record as “about 1%”.
